# Results: publication PMC10541198, “Specific quinone reductase 2 inhibitors reduce metabolic burden and reverse Alzheimer’s disease phenotype in mice” (The Journal of Clinical Investigation, 2023)
# Values joined by “and” are separate entries in the source; they are usually repeats but may differ in a detail not shown here. Equal entries are not always repeated.
# What was measured:
# [1] = Body weight during chronic ingestion; format: in vivo, mouse; conditions: for average weight: over 25 days of consumption; for Sup. Fig. 5-2A, body weight: in g (unit assumed)
# Experimental: Supplementary Figure 6. Chronic Drinking of 50 mg/kg YB -537 for of 1 Month Causes no Changes
# in General Mouse Physiology or Behavior but Improves Nesting Behavior Over Time. […]
# eIF2α = assay: Immunoblot of total and phosphorylated eIF2α 3 hours after CA1 microinjection; format: in vivo, mouse
# Experimental: In order to evaluate the efficacy of some of the leading QR2is in vivo, we carried out double-blind experiments using 2 different modalities (Supplemental Methods), measuring memory that is dependent on different brain areas. First, cortical memory was tested using incidental novel taste learning (see Methods), in which an unfamiliar, but palatable and safe, taste is given for the first time, and the memory for this newly learned taste is then assessed 2 days later. This is done by measuring the volume of the taste consumed upon subsequent exposure to it ([32]) (Figure 4A). […] Next, hippocampal-dependent learning was evaluated using delay fear conditioning (DFC; see Methods) ([33]). Mice were cannulated to the CA1 region of the hippocampus and were microinjected with YB-537 (1 μL of 5 μM, Figure 4, D and H) or vehicle. […] In order to evaluate any possible effect of acute QR2i microinjection on metabolic stress in the mouse brain, ISR activation was measured by quantifying total and phosphorylated eukaryotic initiation factor 2 α (eIF2α) levels (Supplemental Figure 3A) and lipid peroxidation product, 4-hydroxynonenal (4-HNE; Supplemental Figure 3B), by immunoblot 3 hours after the injection. […]
# CD73 = assay: Immunoblot of CD73 in HCT116 cells after 4-day treatment; format: cell-based, human; conditions: 2 μM, 4 days
# Experimental: To establish direct target engagement and cell membrane permeability, a cellular thermal shift assay (CETSA) was carried out, using leading QR2is YB’s-537, 800, and 808. Following a 1 hour preincubation with 5 μM of the QR2is or vehicle, thermal aggregation curves (Taggs) of QR2 expressed in HEK293T were measured in increasing temperatures. All QR2is increased QR2 thermal stability compared with vehicle (Supplemental Figure 2A). Based on the Tagg curves we selected 73°C for isothermal dose-response fingerprint (IDTRF) experiments (Supplemental Figure 2B). The ITDRF allowed the relative quantification of the binding of each of the QR2is to QR2, measured as the EC50 (Figure 3A). […] We evaluated the safety of the QR2is using cell toxicity and viability assays. […] Cell viability was assessed by XTT assay in HEK239T cells, using a dose response, with 3- or 24-hour incubations of the leading QR2is. […] We then assessed WT HCT116 cells by immunoblot (Supplemental Figure 2, C and D), after being treated with YB-800 (2 μM) for 4 consecutive days. […]
# The cells wer e har ves t ed a nd resuspended in 1% cl ear m e di um ( DM EM – with no phenol red, suppl em ent ed with 1% FBS, 1% L-Glutamine and 1% Penicillin-Streptomycin). […] The plate wa s then incubated in the dark at 37°C f or 3 h, before reading in a Tecan M200 Pro florescence microplate reader, using wavelengths Ex/Em = 485 nm / 535 nm . […]
compound,measurement,setting,value
Cc1ccc(-c2cn3cccc(C)c3n2)cc1S(=O)(=O)N1CCNCC1 [YB-537],average weight,[1]; 5xFAD females,22.76 ± 0.192 g
same,average weight,[1]; 5xFAD males,32.56 ± 0.279 g
same,"Sup. Fig. 5-2A, body weight","[1]; Female, Day 1",23 and 22 and 24 and 25 and 21 and 20
same,"Sup. Fig. 5-2A, body weight","[1]; Female, Day 3",25 and 20 and 24 and 23
same,"Sup. Fig. 5-2A, body weight","[1]; Female, Day 5",25 and 21 and 27 and 24 and 20
same,"Sup. Fig. 5-2A, body weight","[1]; Female, Day 9",24 and 20 and 25 and 27 and 22
same,"Sup. Fig. 5-2A, body weight","[1]; Female, Day 11",23 and 21 and 25 and 26 and 22
same,"Sup. Fig. 5-2A, body weight","[1]; Female, Day 15",25 and 22 and 26 and 23 and 24
same,"Sup. Fig. 5-2A, body weight","[1]; Female, Day 16",23 and 20 and 24
same,"Sup. Fig. 5-2A, body weight","[1]; Female, Day 18",23 and 21 and 24 and 22 and 20
same,"Sup. Fig. 5-2A, body weight","[1]; Female, Day 25",25 and 22 and 23 and 21
same,"Sup. Fig. 5-2A, body weight","[1]; Male, Day 1",34 and 42 and 33 and 36 and 31 and 28
same,"Sup. Fig. 5-2A, body weight","[1]; Male, Day 3",33 and 41 and 32 and 35 and 30 and 26
same,"Sup. Fig. 5-2A, body weight","[1]; Male, Day 5",33 and 40 and 32 and 35 and 30 and 26 and 34 and 31
same,"Sup. Fig. 5-2A, body weight","[1]; Male, Day 9",31 and 39 and 32 and 33 and 30 and 27 and 35
same,"Sup. Fig. 5-2A, body weight","[1]; Male, Day 11",31 and 32 and 34 and 30 and 28 and 35
same,"Sup. Fig. 5-2A, body weight","[1]; Male, Day 15",32 and 39 and 34 and 31 and 28 and 36
same,"Sup. Fig. 5-2A, body weight","[1]; Male, Day 18",32 and 37 and 29 and 30 and 33 and 27 and 35
same,"Sup. Fig. 5-2A, body weight","[1]; Male, Day 25",32 and 39 and 31 and 34 and 27
same,eIF2α phosphorylation levels,eIF2α; 3 hours after microinjection in the mouse hippocampus,insignificant reduction
same,"eIF2α phosphorylation, immunoblot (individual mice)","eIF2α; 3 hours after microinjection, Sup. Fig. 3A",1.423 and 1.158 and 1.034 and 0.527 and 1.086 and 1.215 and 0.836
Cc1ccc(-c2cn3cccc(C)c3n2)cc1S(=O)(=O)N1CCC(C)CC1 [YB-800],CD73 expression (replicates),CD73,1.393 and 1.4862 and 1.532 and 1.811 and 1.4595 and 1.188
